Reference: ChEMBL document CHEMBL1127707, “The use of the GRID program in the 3-D QSAR analysis of a series of calcium-channel agonists” (J Med Chem, 1994)

Assay: CMR value (relative to BAY K 8644)
Type: ADME

Row | SMILES | CMR
1 | COC(=O)c1c(C)[nH]c(C)c1C(=O)c1ccccc1[S+]([O-])c1ccccc1 (stereo unspecified) | 10.44
2 | COC(=O)c1c(C)[nH]c(C)c1C(=O)c1ccccc1[S+]([O-])Cc1ccccc1 (stereo unspecified) | 10.9
3 | COC(=O)c1c(C)[nH]c(C)c1C(=O)c1ccccc1Oc1ccccc1 | 9.75
4 | COC(=O)c1c(C)[nH]c(C)c1C(=O)c1ccccc1Cc1ccc(N)cc1 | 10.43
5 | COC(=O)c1c(C)[nH]c(C)c1C(=O)c1ccccc1Nc1ccccn1 | 9.75
6 | COC(=O)c1c(C)[nH]c(C)c1C(=O)c1ccccc1Oc1ccc([N+](=O)[O-])cc1 | 10.47
7 | COC(=O)c1c(C)[nH]c(C)c1C(=O)c1ccccc1Cc1ccccc1[N+](=O)[O-] | 10.78
8 | COC(=O)c1c(C)[nH]c(C)c1C(=O)c1ccccc1OCc1ccccc1 | 10.21
9 | COC(=O)c1c(C)[nH]c(C)c1C(=O)c1ccccc1SCc1ccccc1 | 10.87
10 | COC(=O)c1c(C)[nH]c(C)c1C(=O)c1ccc(C)cc1C | 8.01
11 | COC(=O)c1c(C)[nH]c(C)c1C(=O)c1ccc(F)cc1Cc1ccc(F)cc1 | 10.09
12 | COC(=O)c1c(C)[nH]c(C)c1C(=O)c1ccccc1NC1CCCCC1 | 10.06
13 | COC(=O)c1c(C)[nH]c(C)c1C(=O)c1ccccc1Cc1ccc(F)cc1 | 10.08
14 | COC(=O)c1c(C)[nH]c(C)c1C(=O)c1ccc(F)cc1Br | 7.877
15 | COC(=O)c1c(C)[nH]c(C)c1C(=O)c1ccccc1OS(=O)(=O)c1ccc(C)cc1 | 10.62
16 | COC(=O)c1c(C)[nH]c(C)c1C(=O)c1ccccc1Sc1ccc([N+](=O)[O-])cc1 | 11.13
17 | COC(=O)c1c(C)[nH]c(C)c1C(=O)c1ccccc1Nc1ccccc1 | 9.96
18 | COC(=O)c1c(C)[nH]c(C)c1C(=O)c1ccc([N+](=O)[O-])cc1Cl | 8.3

Row | SMILES | CMR
19 | COC(=O)c1c(C)[nH]c(C)c1C(=O)c1ccccc1Cc1ccc([N+](=O)[O-])cc1 | 10.79
20 | COC(=O)c1c(C)[nH]c(C)c1C(=O)c1ccccc1C | 7.58
21 | COC(=O)c1c(C)[nH]c(C)c1C(=O)c1ccccc1F | 7.1
22 | COC(=O)c1c(C)[nH]c(C)c1C(=O)c1ccccc1I | 8.39
23 | COC(=O)c1c(C)[nH]c(C)c1C(=O)c1ccccc1-c1ccccc1 | 9.6
24 | COC(=O)c1c(C)[nH]c(C)c1C(=O)c1ccccc1CCc1ccccc1 | 10.52
25 | COC(=O)c1c(C)[nH]c(C)c1C(=O)c1ccccc1S(=O)(=O)Cc1ccccc1 | 10.93
26 | COC(=O)c1c(C)[nH]c(C)c1C(=O)c1ccccc1C(=O)Oc1ccccc1O | 10.4
27 | COC(=O)c1c(C)[nH]c(C)c1C(=O)c1ccccc1Sc1ccccc1 | 10.4
28 | COC(=O)c1c(C)[nH]c(C)c1C(=O)c1ccccc1CC1CCCCC1 | 10.15
29 | COC(=O)c1c(C)[nH]c(C)c1C(=O)c1ccc(F)cc1Cc1ccccc1 | 10.08
30 | COC(=O)c1c(C)[nH]c(C)c1C(=O)c1ccc(Cl)cc1Cl | 8.07
31 | COC(=O)c1c(C)[nH]c(C)c1C(=O)c1ccccc1 | 7.08
32 | COC(=O)c1c(C)[nH]c(C)c1C(=O)c1ccccc1OC | 7.7
33 | COC(=O)c1c(C)[nH]c(C)c1C(=O)c1ccccc1Cl | 7.58
34 | COC(=O)c1c(C)[nH]c(C)c1C(=O)c1ccccc1C(F)(F)F | 7.6
35 | COC(=O)c1c(C)[nH]c(C)c1C(=O)c1ccccc1Cc1ccccc1 | 10.06
36 | COC(=O)c1c(C)[nH]c(C)c1C(=O)c1ccccc1Br | 7.86
